The text below walks through data of US10752634B2, “Crystalline forms of a brutons tyrosine kinase inhibitor” (Pharmacyclics LLC, priority 2012, dated 2020).

One series has as its system OCI-Ly10. The experiment in a line: Growth inhibition of OCI-Ly10 (ABC-DLBCL) cells. The series is classed as cell-based. Conditions: Homo sapiens. The source says:
See U.S. Pat. No. 7,711,492 and Staudt et al., Nature, Vol. 463, Jan. 7, 2010, pp. 88-92, the contents of which are incorporated by reference in their entirety.

Series [1] is described as follows: Solid form stability on storage, by XRPD. The series is classed as physicochemical. To be noted: for XRPD pattern post storage: stated as property of the form. As for the experimental part:
X-Ray powder diffraction patterns were collected on a Bruker AXS C2 GADDS or Bruker AXS D8 diffractometer.
X-Ray Powder Diffraction patterns were collected on a Bruker AXS C2 GADDS diffractometer using Cu Ka radiation (40 kV, 40 mA), automated XYZ stage, laser video microscope for auto-sample positioning and a HiStar 2-dimensional area detector. X-ray optics consists of a single Göbel multilayer mirror coupled with a pinhole collimator of 0.3 mm A weekly performance check is carried out using a certified standard NIST 1976 Corundum (flat plate). The beam divergence, i.e. the effective size of the X-ray beam on the sample, was approximately 4 mm. A θ-θ continuous scan mode was employed with a sample—detector distance of 20 cm which gives an effective 2θ range of 3.2°-29.7°. Typically the sample would be exposed to the X-ray beam for 120 seconds. The software used for data collection was GADDS for WNT 4.1.16 and the data were analysed and presented using Diffrac Plus EVA v11.0.0.2 or v13.0.0.2.
X-Ray Powder Diffraction patterns were collected on a Bruker D8 diffractometer using Cu Ka radiation (40 kV, 40 mA), θ-2θ goniometer, and divergence of V4 and receiving slits, a Ge monochromator and a Lynxeye detector. The instrument is performance checked using a certified Corundum standard (NIST 1976). The software used for data collection was Diffrac Plus XRD Commander v2.5.0 and the data were analysed and presented using Diffrac Plus EVA v11.0.0.2 or v13.0.0.2. Samples were run under ambient conditions as flat plate specimens using powder as received. The sample was gently packed into a cavity cut into polished, zero-background (510) silicon wafer. The sample was rotated in its own plane during analysis. The details of the data collection are: • Angular range: 2 to 42° 2θ • Step size: 0.05° 2θ • Collection time: 0.5 s/step

The conditions of series [2]: for changes in the XRPD after GVS analysis: after GVS isotherm; for mass change: between 0-90% RH. Here is the method: Sorption isotherms were obtained using a SMS DVS Intrinsic moisture sorption analyser, controlled by DVS Intrinsic Control software v1.0.0.30. The sample temperature was maintained at 25° C. by the instrument controls. […] The weight change, (mass relaxation) of the sample as a function of % RH was constantly monitored by the microbalance (accuracy ±0.005 mg). Typically 5-20 mg of sample was placed in a tared mesh stainless steel basket under ambient conditions. The sample was loaded and unloaded at 40% RH and 25° C. (typical room conditions). A moisture sorption isotherm was performed as outlined below (2 scans giving 1 complete cycle). The standard isotherm was performed at 25° C. at 10% RH intervals over a 0-90% RH range. Data analysis was undertaken in Microsoft Excel using DVS Analysis Suite v6.0.0.7. The sample was recovered after completion of the isotherm and re-analysed by XRPD.

Series [3] is described as follows: Thermodynamic aqueous solubility. The series is classed as physicochemical. As for the experimental part: The suspension was equilibrated at 25° C. for 24 hours then the pH was measured. The suspension was then filtered through a glass fibre C filter. The filtrate was then diluted by an appropriate factor e.g. 101. Quantitation was by HPLC with reference to a standard solution of approximately 0.25 mg/ml in DMSO. Different volumes of the standard, diluted and undiluted sample solutions were injected. The solubility was calculated using the peak areas determined by integration of the peak found at the same retention time as the principal peak in the standard injection.
Analysis was performed on an Agilent HP1100 series system equipped with a diode array detector and using ChemStation software vB.02.01-SR1.

pEC50: −log10 of the molar value. ≈ marks a conversion by molar mass, not a printed value. Like-named read-outs stand apart in the source and are kept apart here.

Broadly, the pEC50 is −log10 of the EC50, conventionally taken in molar units. On to `C=CC(=O)N1CCC[C@@H](n2nc(-c3ccc(Oc4ccccc4)cc3)c3c(N)ncnc32)C1` [Compound 1, 1-((R)-3-(4-amino-3-(4-phenoxyphenyl)-1H-pyrazolo[3,4-d]pyrimidin-1-yl)piperidin-1-yl)prop-2-en-1-one], for which the pEC50 in the series on OCI-Ly10 (OCI-Ly10, 1 h, read-out: EC50 1 hour pulse, growth of OCI-Ly10) is 7.30; in the series on OCI-Ly10 (OCI-Ly10, read-out: EC50 continuous exposure, growth of OCI-Ly10) it was 8.00.
For the molecule `C=CC(=O)N1CCC[C@@H](n2nc(-c3ccc(Oc4ccccc4)cc3)c3c(N)ncnc32)C1` [Form E, 1-((R)-3-(4-amino-3-(4-phenoxyphenyl)-1H-pyrazolo[3,4-d]pyrimidin-1-yl)piperidin-1-yl)prop-2-en-1-one], the “form conversion on standing and drying” value in series [1] (standing at ambient temperature overnight and drying at 40° C. in vacuo for one day) was “converted to Compound 1, Form A”.
For the molecule `C=CC(=O)N1CCC[C@@H](n2nc(-c3ccc(Oc4ccccc4)cc3)c3c(N)ncnc32)C1` [Form B, 1-((R)-3-(4-amino-3-(4-phenoxyphenyl)-1H-pyrazolo[3,4-d]pyrimidin-1-yl)piperidin-1-yl)prop-2-en-1-one], the “hysteresis in GVS” value in series [2] (0-90% RH, 25° C.) is reported as “No hysteresis”. In addition, the “changes in the XRPD after GVS analysis” value in series [2] was “No significant changes”. In series [2] (25° C.), this molecule registered a mass change of 2.3 % w/w.
Consider `C=CC(=O)N1CCC[C@@H](n2nc(-c3ccc(Oc4ccccc4)cc3)c3c(N)ncnc32)C1` [Form A, 1-((R)-3-(4-amino-3-(4-phenoxyphenyl)-1H-pyrazolo[3,4-d]pyrimidin-1-yl)piperidin-1-yl)prop-2-en-1-one], for which, in series [2], the “changes in the XRPD after GVS analysis” value is “No significant changes”. Also, in series [2] (25° C.), the mass change is on record as below 0.3 % w/w. For the same molecule, the “XRPD pattern post storage” value is listed as “substantially the same” in series [1] (25° C. and 97% RH for at least a week); “substantially the same” in series [1] (40° C. and 75% RH for at least a week). Further, the crystallinity after storage entry in series [1] (one week storage at 25° C./97% RH) and in series [1] (one week storage at 40° C./75% RH) was “unaffected” throughout. Besides, the observed aqueous solubility entry in series [3] (about pH 8, stated as property of the form) is listed as “about 0.013 mg/mL”. Moreover, in series [3] (pH 8, 25° C., 24 hours), the “Solubility in aqueous solution, Conc. Found” value stood at 13 µg/mL (≈ 29.5 µM).
